From patent US20200306283A1, “CANCER TREATMENT AND METASTASIS INHIBITION USING AN ANTI-CANCER STEM CELL AGENT IN COMBINATION WITH A NEU1 SIALIDASE INHIBITOR OR A CYTOKINE INHIBITOR AFTER PRIMARY CANCER TREATMENT” (priority 2016, published 2020)

Assays:
SW-620 cells = SW-620 cells treated with cytokines with or without Irinotecan, flow cytometry for stem cell markers and apoptosis; assay type: cell-based, human; details: SW-620, cytokines 24 hours then 2 μM Irinotecan 36 hours; zero in non-treated control cells
Protocol: SW-620 cells, a human colorectal adenocarcinoma cell line, were treated with cytokines alone or in combination including IL-6, TGF-beta, HGF, PGE-2, IL-6+PGE-2 and TGF-beta+HGF for 24 hours and compared to untreated SW-620 cells as control. Some treated and untreated SW-620 cells were then exposed to 2 μM Irinotecan for 36 hours at which point cells were harvested for flow cytometry to assess for stem cell markers and markers of apoptosis. The percentage of CD44+CD133− cells following treatment with various cytokine and cytokine cocktails is depicted in FIG. 10. Compared to non-cytokine treated cells, combinations with IL-6+PGE-2, and TGF-beta+HGF increased the number and percentage of cells that were CD44+CD133− as shown in FIG. 10 (stem cells). FIG. 11 depicts the percentage of CD44+CD133− cells following treatment with various cytokines and Irinotecan. […]
Additionally, the percentage of CD44-CD133+ cells following treatment with various cytokines and cytokines cocktails was determined as depicted in FIG. 16. The percentage of CD44-CD133+ cells following treatment with various cytokines and Irinotecan was measured as depicted in FIG. 17. The percentage of CD44-CD133+ cells following treatment with various cytokine cocktails and Irinotecan was measured as depicted in FIG. 18. […]

[1] = tested on: enriched circulating tumour cells from a patient with metastatic prostate cancer; assay: Cell proliferation / cancer stem cell markers (EpCAM, CD44, CD133) in enriched CTCs cultured with cytokine cocktails; assay type: cell-based, human
Protocol: (§1) Cells were fixed in 1% Paraformaldehyde for 15 minutes at room temperature and run on Flowsight using 2 lasers (488 nm at 60 mW and 405 nm at 30 mW). For cell lines, 100,000 events were collected whilst for enriched CTCs all events were collected until the sample finished.
(§2) Flow cytometry data was analysed using IDEAS software. Double events, out of focus events, CD45PercPCy5.5 positive cells (in case of enriched CTCs), dead cells and non-nucleated events were eliminated from the fluorescence analysis of the cell population. FIG. 2 depicts scatterplots of flow cytometry experiments showing the enriched CTCs stained with an antibody containing CD44 after treatment with various cytokines and cytokine cocktails.
In order to determine if selected cytokines influence cell proliferation of circulating tumour cells (CTCs), whole blood was collected from a patient with metastatic prostate cancer. Circulating tumour cells were enriched from whole blood using RosetteSep CTC Enrichment cocktail. Briefly, samples of whole blood were incubated with RosetteSep (anti CD 56 for 20 minutes at room temperature). Phosphate buffered saline containing 2% Fetal Bovine Serum was added to the samples and layered on a Ficoll Paque gradient. After centrifugation, the supernatant which contained CTCs was washed twice with PBS containing 2% FBS. Equal volumes of the cell suspension were seeded into a 24-well ultra-low attachment polystyrene plate. […] FIG. 3 depicts scatterplots of flow cytometry experiments enriched CTCs stained with an antibody containing CD133 after treatment with various cytokines and cytokine cocktails.
FIG. 6 depicts cell proliferation of subpopulations in cultured CTCs after exposure to various cytokines and cytokine cocktails. Cells were stained using an antibody containing CD44 PE.
Cells were stained using an antibody containing CD133 PE.

HCT-15 cells = assay: Cell subpopulations (CD44/CD24) in HCT-15 cell line after cytokine exposure, imaging flow cytometry; assay type: cell-based; design: unit not given here; details: HCT-15 cells after exposure to cytokines singly or in pairs
Protocol: Two authenticated colorectal carcinoma cell lines, HCT-15 and SW-620, were used to test the effect of different cytokine and cytokine cocktails, including IL-6, HGF, PGE-2, TGF-beta and MMP-9 alone or in a cocktail, on cell proliferation, EMT and cancer stem cell populations.
In order to evaluate stem cell populations, cells were synchronized by serum starvation for 72 hours before seeding in 24-well ultra low attachment plates at a density of 200,000 cells/well. Cells were then detached using trypsin EDTA and washed twice with PBS (without Calcium or Magnesium). A cell proliferation dye, eFluor 450 was used to label cells. Cells were grown with DMEM with high glucose and 2 mM Gluatmine without FBS in the presence of selected cytokines and or cytokine cocktails over a period of 72 hrs.
Cells that were grown in 5% serum were stained with the following antibody cocktails: CD24FITC, CD44PE and CD24FITC, CD133PE. Cells were also stained with a fixable live/dead efluor dye 506 to exclude dead cells. In parallel, cells were grown in the presence of 5% serum to evaluate CSC markers.
as §1
as §2, with “cocktails. Hoescht 33258 dye was used to stain nuclei in the case of the HCT-15 cell line and enriched CTCs. All experiments were stained with a fixable live/dead dye eFluor 506 to exclude dead cells.” for “cocktails.”
To evaluate which cocktail combinations were most likely involved in cell proliferation of presumed quiescent stem cells or de-differentiated stem cell-like cells, four cytokines, IL-6, HGF, PGE-2 and TGF-beta were added singly or in pairs to HCT-15 cells. Results of combinations that influenced cell proliferation of HCT-15 cells in culture are presented. […] FIG. 4 depicts cell proliferation of subpopulations in the HCT-15 cell line after exposure to various cytokines and cytokine cocktails.

[2] = tested on: enriched circulating tumour cells from a patient with colorectal cancer; assay: Cultured enriched CTCs from a colorectal cancer patient treated with IL-6, IL-8 or PDGFBB (EpCAM, CD133, Lgr5 flow cytometry); assay type: cell-based, human
Description: A blood sample was collected from a patient with colorectal cancer six days after surgery. Blood samples were enriched for CTCs using RosetteSep CD 56 kit according to standard protocol. Prior to cell culture, cells were stained with the following antibody cocktail: EpCAM A488, CD133PE, CD 45 PerCP Cy5.5, and Lgr5-PE-Vio770. Cells were either cultured in low attachment well plates without cytokines (control cells) or with three different cytokines (IL-6, IL-8 or PDGFBB).
Flow cytometry data was analysed using IDEAS software. Double events, out of focus events, CD45PercPCy5.5 positive cells, dead cells and non-nucleated events were eliminated from the fluorescence analysis of the cell population. Hoescht 33258 dye was used to stain nuclei of enriched CTCs. All experiments were stained with a fixable live/dead dye eFluor 506 to exclude dead cells.

[3] = tested on: xenograft tumors of PANC-1 cells; assay: Fluorescence immunohistochemistry of E-cadherin and N-cadherin in PANC-1 xenograft tumors (FIG. 24); assay type: in vivo; details: immunocompromised mice
Protocol: Paraffin-embedded tumor sections (5 μm) on glass slides were processed from immunohistochemistry using conjugated E-cadherin and N-cadherin antibodies (see A of FIG. 24). Background control (CTL) sections were prepared without the antibodies. Images are representative of at least five fields of view from two tumor sections. (B). Each bar represents the mean (±standard error of the mean) corrected density of tumor staining. Abbrev.: C=cohort; M=mouse number. E- and N-cadherin expression in paraffin-embedded xenograft tumors of PANC-1 cells in immunocompromised mice using conjugated E- and N-cadherin antibodies was detected by fluorescence immunohistochemistry. […] Images are representative of at least five fields of view from two tumor sections, and each bar represents the mean±standard error of the mean corrected density of tumor staining.

[4] = cell culture period 8 days, CD44PE antibody cocktail
[5] = cultured CTCs from colorectal cancer patient

With “IL6: cytokine Interleukin 6 added to cancer cells in culture” the “percentage of CD44+CD133− stem cells” value (SW-620 cells) was “enriched”, the “percentage of cells positive for both EpCAM and CD44” value ([1]; 8 days culture, CD44PE antibody cocktail) was “highest” and the “EpCAM-CD44+ cell sub-population” value ([1]; 8 days culture, no serum, CD44PE antibody cocktail) was 6.14 % gated. For the same compound, the “EpCAM + CD133+ cell subpopulation” value ([1]; CD133 PE antibody cocktail) was 23.5 percentages of gated subpopulations, the “EpCAM + CD133− cell subpopulation” value ([1]; CD133 PE antibody cocktail) was 0 percentages of gated subpopulations and the “EpCAM − CD133+ cell subpopulation” value ([1]; CD133 PE antibody cocktail) was 74.7 percentages of gated subpopulations. The “EpCAM − CD133− cell subpopulation” value ([1]; CD133 PE antibody cocktail) was 1.46 percentages of gated subpopulations, the “EpCAM + CD44+ cell subpopulation” value [1, 4] was 35.6 percentage of gated cells and the “EpCAM + CD44− cell subpopulation” value [1, 4] was 2.66 percentage of gated cells. The “EpCAM − CD44+ cell subpopulation” value [1, 4] was 6.14 percentage of gated cells, the “EpCAM − CD44− cell subpopulation” value [1, 4] was 55 percentage of gated cells and the “CD24 + CD44− cell subpopulation” value (HCT-15 cells) was 49.1. The “CD44 + CD24+ cell subpopulation” value (HCT-15 cells) was 5.63, the “CD44 + CD24− cell subpopulation” value (HCT-15 cells) was 1.35 and the “CD44 − CD24− cell subpopulation” value (HCT-15 cells) was 43.2. For the same compound, the “EpCAM + CD133+ cell subpopulation” value [2, 5] was 0.1 percentages of gated subpopulations, the “EpCAM + CD133− cell subpopulation” value [2, 5] was 2.98 percentages of gated subpopulations and the “EpCAM − CD133+ cell subpopulation” value [2, 5] was 0.12 percentages of gated subpopulations. For the same compound, the “EpCAM − CD133− cell subpopulation” value [2, 5] was 90.5 percentages of gated subpopulations and the “EpCAM+CD133− subpopulation (cancer stem cell fraction)” value ([2]; cultured CTCs, colorectal cancer patient, 0.05% before culture, 2% control, listed as IL-6) was “significantly increased”.
Nc1ccn([C@@H]2O[C@H](CO)[C@@H](O)C2(F)F)c(=O)n1 [Gem, gemcitabine] was tested, and the “N-cadherin expression in tumor tissue” value [3] was “remained consistent”.
